From PMC7247349, “Reactions of Plasmodium falciparum Ferredoxin:NADP^+ Oxidoreductase with Redox Cycling Xenobiotics: A Mechanistic Study” (International Journal of Molecular Sciences, 2020)

Legend:
[1] = target: T1, Ferredoxin:NADP^+ oxidoreductase (PfFNR) (Plasmodium falciparum, UniProt C6KT68); assay: steady-state kinetics; competitive inhibition versus AcPyP+ in transhydrogenase reaction; stopped-flow FAD reduction; assay type: biochemical
T1 construct: gene FNR; recombinant PfFNR
Text: steady-state kinetics; competitive inhibition versus AcPyP+ in transhydrogenase reaction; stopped-flow FAD reduction on Ferredoxin:NADP^+ oxidoreductase (PfFNR) | NADPH acts as a competitive inhibitor to AcPyP^+, occupying the pyridine nucleotide binding site of the reduced enzyme form

[2] = target: T1, Ferredoxin:NADP^+ oxidoreductase (PfFNR); assay: steady-state product inhibition of juglone reductase reaction; assay type: biochemical

T1 sequence (C6KT68 56-371): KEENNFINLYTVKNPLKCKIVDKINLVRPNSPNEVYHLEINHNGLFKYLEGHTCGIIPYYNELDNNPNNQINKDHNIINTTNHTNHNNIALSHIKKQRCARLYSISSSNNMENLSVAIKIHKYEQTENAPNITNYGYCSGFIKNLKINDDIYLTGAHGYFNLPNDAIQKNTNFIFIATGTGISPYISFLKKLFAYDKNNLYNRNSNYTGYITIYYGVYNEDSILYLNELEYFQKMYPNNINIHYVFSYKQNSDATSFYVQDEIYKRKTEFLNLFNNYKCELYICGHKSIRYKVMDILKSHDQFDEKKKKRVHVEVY

Structure (SMILES)	Ki [1] [µM]	Ki [2] [µM]
NC(=O)C1=CN([C@@H]2O[C@H](COP(=O)(O)OP(=O)(O)OC[C@H]3O[C@@H](n4cnc5c(N)ncnc54)[C@H](OP(=O)(O)O)[C@@H]3O)[C@@H](O)[C@H]2O)C=CC1 [NADPH]	140 ± 20	–
NC(=O)c1ccc[n+]([C@@H]2O[C@H](COP(=O)([O-])OP(=O)(O)OC[C@H]3O[C@@H](n4cnc5c(N)ncnc54)[C@H](OP(=O)(O)O)[C@@H]3O)[C@@H](O)[C@H]2O)c1 [NADP^+]	–	1420 ± 130
